# Results as given in publication PMC9958325 (Nature Communications, 2023).
# Several values for one entry are separate records, joined by “and”; a condition that tells them apart may be missing. Identical values can stand only once. Counter-ions that a name gives are not always drawn. Like-named read-outs stand apart in the source and are kept apart here. Marks after values point to notes of the source that are not given here. Peptide text beside a SMILES is read from it. * marks the point of attachment. Cbz = O=C(OCc1ccccc1)*; CH2F = FC*
# Columns and labels:
# SARS-CoV-2^WK-521 = assay: microbe, parasite or virus in culture; format: cell-based; set-up: EC95, individual assays / EC95, Average: unit: µM
# [1] = Pharmacokinetic study in ICR mice; conditions: N = 2 to 3 male or female ICR mice; 5h, TKB125 i.v. 2 mg/kg
# [2] = tested on: SARS-CoV-2^WK521 in HeLa-ACE2-TMPRSS2 cells; assay: Antiviral assay, HeLa-ACE2-TMPRSS2 cells, WK521; format: cell-based
# in vitro [3] = conditions: African green monkey, VeroE6 cells
# in vitro [4] = conditions: human, HeLa-ACE2-TMPRSS2 cells
# human cathepsin L = biological target: T1, human cathepsin L (Homo sapiens, UniProt P07711); assay: Human cathepsin L inhibitor screening assay; format: biochemical; conditions: triplicate, listed as Cathepsin L inhibitor/FF-FMK
# T1 construct: purchased abcam ab197012
# SARS-CoV-2 M^pro/3CL^pro = SARS-CoV-2 M^pro/3CL^pro (Severe acute respiratory syndrome coronavirus 2, UniProt P0DTD1); format: biochemical; set-up: IC95, individual assays / IC95, Average: unit: µM
# [5] = mouse, in vivo
# VeroE6 cells = assay: Intracellular concentrations of compounds (LC/MS), VeroE6 cells; conditions: Vero, calculated value per cell count
# HeLa-ACE2-TMPRSS2 cells = assay: Intracellular concentrations of compounds (LC/MS), HeLa-ACE2-TMPRSS2 cells; conditions: for intracellular compound, /1x10^6: calculated value per cell count; for intracellular compound, calculated value /20uL: from AUC against pmol standard curve
# [6] = read-out: EC50, individual assays
# [7] = read-out: SARS-CoV2 RNA VeroE6 cell-based assay EC50
# [8] = Severe acute respiratory syndrome coronavirus 2, Vero C1008, read-out: SARS-CoV2 RNA VeroE6 cell-based assay EC50
# [9] = Severe acute respiratory syndrome coronavirus 2, SARS-CoV-2^WK521, read-out: EC50, HeLa-ACE2-TMPRSS2
# [10] = Severe acute respiratory syndrome coronavirus 2, read-out: EC50, HeLa-AEC2-TMPRSS2, individual assays, source data
# [11] = Severe acute respiratory syndrome coronavirus 2, source data, read-out: EC50, HeLa-AEC2-TMPRSS2, Average
# [12] = read-out: EC50, HeLa-AEC2-TMPRSS2, individual assays, source data
# [13] = FRET, mean ± 1 S.D., read-out: SARS-CoV2 M^pro enzyme assay IC50
# [14] = source data, M^pro enzyme assay
# [15] = source data, M^pro enzyme assay, read-out: IC50, Average
# [16] = Hela ACE2 TMPRSS2, drug 10, duplicates
# [17] = Hela ACE2 TMPRSS2, drug 50, duplicates
# [18] = Hela ACE2 TMPRSS2, drug 100, duplicates
# T1 sequence (P07711 114-333): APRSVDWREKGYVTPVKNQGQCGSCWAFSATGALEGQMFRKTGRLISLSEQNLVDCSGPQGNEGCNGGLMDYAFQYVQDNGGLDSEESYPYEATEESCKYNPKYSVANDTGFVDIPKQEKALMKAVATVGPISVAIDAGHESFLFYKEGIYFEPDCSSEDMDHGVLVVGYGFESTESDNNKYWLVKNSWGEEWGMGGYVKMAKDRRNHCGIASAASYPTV
structure (smiles),measurement,setting,value
"COc1cccc2[nH]c(C(=O)N[C@@H](CC(C)C)C(=O)N[C@@H](C[C@@H]3CCNC3=O)C(=O)c3nc4ccccc4s3)cc12 [Compound 5h, reference compound]","EC95, Average",SARS-CoV-2^WK-521,9.4675
same,"EC95, individual assays",SARS-CoV-2^WK-521,9.47 and 9.68 and 9.72 and 9
same,SARS-CoV2 RNA VeroE6 cell-based assay EC95,SARS-CoV-2^WK-521,9470 ± 330 nM
same,EC50,SARS-CoV-2^WK-521; [6],2700 nM and 3200 nM and 2000 nM and 2500 nM
same,EC50,SARS-CoV-2^WK-521; [7],2600 ± 500 nM
same,T1/2,[1],0.27§ h
Cn1cnc(Cn2c(=O)[nH]/c(=N\c3cc4cn(C)nc4cc3Cl)n(Cc3cc(F)c(F)cc3F)c2=O)n1 [Ensitrelvir fumarate],EC50,"SARS-CoV-2^WK-521; Severe acute respiratory syndrome coronavirus 2, Vero C1008, read-out: EC50, Average",106 nM
same,EC50,SARS-CoV-2^WK-521; [8],110 ± 50 nM
same,EC50,SARS-CoV-2^WK-521; [6],45 nM and 127 nM and 156 nM and 98 nM
same,EC50,[2]; [9],200 ± 30 nM
same,EC50,[2]; [10],211 nM
same,EC50,[2]; [11],204 nM
same,EC50,[2]; [12],230 nM and 170 nM
same,CC50 at 3 days,in vitro [3],> 100000 nM
same,CC50 at 3 days,in vitro [4],> 100000 nM
"O=C(NC(Cc1ccccc1)C(=O)NC(Cc1ccccc1)C(=O)CF)OCc1ccccc1 (stereo not drawn) [FF-FMK, reference compound] (Cbz-Phe-Phe-CH2F; configuration not given here)",% inhibition against human Cathepsin,human cathepsin L; 0.00106 µM,39.8315% and 40.7898% and 42.7898%
same,% inhibition against human Cathepsin,human cathepsin L; 0.0053 µM,58.2277% and 58.5989% and 59.5989%
same,% inhibition against human Cathepsin,human cathepsin L; 0.0266 µM,77.0946% and 80.3037% and 81.3037%
same,% inhibition against human Cathepsin,human cathepsin L; 0.6 µM,98.8112% and 98.8499%
same,% inhibition against human Cathepsin,human cathepsin L; 3.3 µM,99.7789% and 99.782%
same,% inhibition against human Cathepsin,human cathepsin L; 16.6 µM,99.9553% and 99.0234% and 100.023%
CC(C)C(=O)OC[C@H]1O[C@@H](n2ccc(NO)nc2=O)[C@H](O)[C@@H]1O [Molnupiravir],EC50,"SARS-CoV-2^WK-521; Severe acute respiratory syndrome coronavirus 2, Vero C1008, read-out: EC50, individual assays",270 nM
same,EC50,SARS-CoV-2^WK-521; [8],350 ± 60 nM
same,EC50,SARS-CoV-2^WK-521; [6],330 nM and 380 nM and 420 nM
same,EC50,[2]; [9],320 ± 70 nM
same,EC50,[2]; [10],270 nM
same,EC50,[2]; [11],323 nM
same,EC50,[2]; [12],300 nM and 400 nM
same,CC50 at 3 days,in vitro [3],> 100000 nM
same,CC50 at 3 days,in vitro [4],> 100000 nM
COc1ccc(F)c2[nH]c(C(=O)N[C@@H](CC(C)C)C(=O)N[C@@H](C[C@@H]3CCNC3=O)C(=O)c3nc4ccccc4s3)cc12 [TKB125],SARS-CoV2 M^pro enzyme assay IC95,"SARS-CoV-2 M^pro/3CL^pro; FRET, mean ± 1 S.D.",1020 ± 400 nM
same,IC50,SARS-CoV-2 M^pro/3CL^pro; [13],34 ± 6 nM
same,"IC95, Average",SARS-CoV-2 M^pro/3CL^pro; [14],1.022
same,"IC95, individual assays",SARS-CoV-2 M^pro/3CL^pro; [14],0.8844 and 1.476 and 0.7048
same,IC50,SARS-CoV-2 M^pro/3CL^pro; [15],34 nM
same,IC50,"SARS-CoV-2 M^pro/3CL^pro; source data, M^pro enzyme assay, read-out: IC50, individual assays",28.2 nM and 39.6 nM and 34.1 nM
same,"EC95, Average",SARS-CoV-2^WK-521,8.3875
same,"EC95, individual assays",SARS-CoV-2^WK-521,8.28 and 8.91 and 7.98 and 8.38
same,SARS-CoV2 RNA VeroE6 cell-based assay EC95,SARS-CoV-2^WK-521,8390 ± 390 nM
same,EC50,"SARS-CoV-2^WK-521; read-out: EC50, Average",1820 nM
same,EC50,SARS-CoV-2^WK-521; [6],1700 nM and 1510 nM and 3160 nM and 900 nM
same,EC50,SARS-CoV-2^WK-521; [7],1820 ± 960 nM
same,T1/2,[1],0.76 § h
COc1ccc(F)c2[nH]c(C(=O)N[C@@H](CC(C)C)C(=O)N[C@@H](C[C@@H]3CCNC3=O)C(=O)c3nc4c(F)cccc4s3)cc12 [TKB198],SARS-CoV2 M^pro enzyme assay IC95,"SARS-CoV-2 M^pro/3CL^pro; FRET, mean ± 1 S.D.",750 ± 270 nM
same,IC50,SARS-CoV-2 M^pro/3CL^pro; [13],23 ± 13 nM
same,"IC95, Average",SARS-CoV-2 M^pro/3CL^pro; [14],0.7533
same,"IC95, individual assays","SARS-CoV-2 M^pro/3CL^pro; source data, M^pro enzyme assay, listed as TKB0198",1.0700 and 0.6000 and 0.5900
same,IC50,"SARS-CoV-2 M^pro/3CL^pro; source data, M^pro enzyme assay, listed as TKB0198, read-out: IC50, individual assays",36 nM and 10.1 nM
same,IC50,SARS-CoV-2 M^pro/3CL^pro; [15],23 nM
same,"EC95, Average",SARS-CoV-2^WK-521,0.834
same,"EC95, individual assays",SARS-CoV-2^WK-521,0.856 and 0.86 and 0.8 and 0.82
same,Improvement of EC50 and EC95 values relative to TKB125,SARS-CoV-2^WK-521,about 10 fold
same,SARS-CoV2 RNA VeroE6 cell-based assay EC95,SARS-CoV-2^WK-521,830 ± 30 nM
same,EC50,"SARS-CoV-2^WK-521; read-out: EC50, Average",272 nM
same,EC50,SARS-CoV-2^WK-521; [6],130 nM and 300 nM and 400 nM and 260 nM
same,EC50,SARS-CoV-2^WK-521; [7],270 ± 110 nM
same,Cmax,[5],85 ng/mL
same,Oral F,[5]; po,1.98§ %
same,T1/2,[1],0.83 § h
CC(C)(C)C(NC(=O)C(F)(F)F)C(=O)N1CC2C(C1C(=O)NC(CC1CCNC1=O)C(=O)c1nc3c(F)cccc3s1)C2(C)C (stereo not shown) [TKB0245A],"intracellular compound, /1x10^6","VeroE6 cells; drug 10, duplicates",0.09213 /1x10^6 and 0.09745 /1x10^6
same,"intracellular compound, /1x10^6","VeroE6 cells; drug 100, duplicates",0.9321 /1x10^6 and 0.7861 /1x10^6
same,"intracellular compound, pmol(total)",HeLa-ACE2-TMPRSS2 cells; [16],0.636 pmol and 0.5701 pmol
same,"intracellular compound, /1x10^6",HeLa-ACE2-TMPRSS2 cells; [16],0.2544 /1x10^6 and 0.228 /1x10^6
same,"intracellular compound, calculated value /20uL",HeLa-ACE2-TMPRSS2 cells; [16],0.59 /20uL and 0.50 /20uL
same,"intracellular compound, pmol(total)",HeLa-ACE2-TMPRSS2 cells; [17],4.585 pmol and 3.749 pmol
same,"intracellular compound, /1x10^6",HeLa-ACE2-TMPRSS2 cells; [17],1.834 /1x10^6 and 1.4997 /1x10^6
same,"intracellular compound, calculated value /20uL",HeLa-ACE2-TMPRSS2 cells; [17],4.77 /20uL and 3.30 /20uL
same,"intracellular compound, pmol(total)",HeLa-ACE2-TMPRSS2 cells; [18],8.312 pmol and 9.388 pmol
same,"intracellular compound, /1x10^6",HeLa-ACE2-TMPRSS2 cells; [18],3.325 /1x10^6 and 3.755 /1x10^6
same,"intracellular compound, calculated value /20uL",HeLa-ACE2-TMPRSS2 cells; [18],6.65 /20uL and 9.39 /20uL
